Ki data for five compounds are collected here from patent US12723063B2, “GIPR-agonist compounds” (Eli Lilly and Company, priority 2019, dated 2026).

As a reminder, the Ki is the dissociation constant of the complex between target and ligand, obtained from inhibition or displacement.

For assay [1], the target named is T1, human GcgR (Homo sapiens, UniProt P47871).
T1 construct: expressed in transfected cells; crude membranes
The experiment in a line: [125I]-Glucagon binding, SPA with WGA beads, 0.1% bacitracin. Particulars: geometric mean, read-out: hGcgR Ki. Summed up: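 SPA competition binding with WGA beads on crude membranes from HEK293 cells stably expressing hGcgR. Buffer: 25 mM HEPES pH 7.4, 2.5 mM CaCl2, 1 mM MgCl2, 0.1% bacitracin, 0.003% Tween-20; 10-point 3-fold dilutions, NSB with 1 μM Gcg.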

For assay [2], the target named is T2, human GIPR (Homo sapiens, UniProt P48546).
T2 construct: expressed in transfected cells; crude membranes
T2 sequence (P48546 22-466): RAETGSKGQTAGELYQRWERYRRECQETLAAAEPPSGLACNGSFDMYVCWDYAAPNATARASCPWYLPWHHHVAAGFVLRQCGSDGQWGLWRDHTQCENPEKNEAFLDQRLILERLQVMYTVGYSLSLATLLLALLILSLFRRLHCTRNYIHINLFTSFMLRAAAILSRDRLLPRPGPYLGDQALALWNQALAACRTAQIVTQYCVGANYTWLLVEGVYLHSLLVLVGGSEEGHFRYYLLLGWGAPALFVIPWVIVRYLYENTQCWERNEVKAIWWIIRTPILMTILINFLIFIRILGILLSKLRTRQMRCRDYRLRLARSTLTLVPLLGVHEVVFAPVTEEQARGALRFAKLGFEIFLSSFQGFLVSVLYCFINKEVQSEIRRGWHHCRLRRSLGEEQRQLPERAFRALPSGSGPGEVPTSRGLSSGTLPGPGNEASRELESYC
As to the kind of experiment: [125I]-GIP binding, SPA with WGA beads, 0.1% bacitracin. Particulars: geometric mean, read-out: hGIPR Ki. Summed up:
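Ki values are geometric means (SEM, n independent days), derived from four-parameter nonlinear regression of IC50. Membranes came from hGIPR-expressing CHO cells.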

Assay [3] addresses T3, human GLP-1R (Homo sapiens, UniProt P43220).
T3 construct: expressed in transfected cells; crude membranes
The experiment in a line: [125I]-GLP-1 binding, SPA with WGA beads, 0.1% bacitracin. Particulars: geometric mean, read-out: hGLP1R Ki. Summed up:
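Binding buffer was 25 mM HEPES pH 7.4 with 2.5 mM CaCl2, 1 mM MgCl2, 0.1% (w/v) bacitracin, 0.003% Tween-20 and EDTA-free protease inhibitors. Four-parameter regression gave IC50, converted to Ki (geometric mean, SEM, n independent days).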

*1 amine or outer side, *2 acyl side, *3 side chain or, on linkers, in order; H or OH if unused. Where a SMILES comes first, the peptide text is derived from it. Side-chain parts run from the residue outwards. [ ]: non-standard residue; d: D form. The star is where a group is joined. C20 diacid = O=C(O)CCCCCCCCCCCCCCCCCCC(=O)*; C18 diacid = O=C(O)CCCCCCCCCCCCCCCCC(=O)*; αMePhe(2-F) = C[C@](N)(Cc1ccccc1F)C(=O)O; γGlu = O=C(O)[C@H](CCC(=O)[*:2])N[*:1]; αMeF = C[C@](N)(Cc1ccccc1)C(=O)O; 4Pal = N[C@@H](Cc1ccncc1)C(=O)O; αMeL = CC(C)C[C@](C)(N)C(=O)O; Orn = NCCC[C@H](N)C(=O)O; AEEA = NCCOCCOCC(=O)O; Aib = CC(C)(N)C(=O)O

T1 sequence (P47871 26-477): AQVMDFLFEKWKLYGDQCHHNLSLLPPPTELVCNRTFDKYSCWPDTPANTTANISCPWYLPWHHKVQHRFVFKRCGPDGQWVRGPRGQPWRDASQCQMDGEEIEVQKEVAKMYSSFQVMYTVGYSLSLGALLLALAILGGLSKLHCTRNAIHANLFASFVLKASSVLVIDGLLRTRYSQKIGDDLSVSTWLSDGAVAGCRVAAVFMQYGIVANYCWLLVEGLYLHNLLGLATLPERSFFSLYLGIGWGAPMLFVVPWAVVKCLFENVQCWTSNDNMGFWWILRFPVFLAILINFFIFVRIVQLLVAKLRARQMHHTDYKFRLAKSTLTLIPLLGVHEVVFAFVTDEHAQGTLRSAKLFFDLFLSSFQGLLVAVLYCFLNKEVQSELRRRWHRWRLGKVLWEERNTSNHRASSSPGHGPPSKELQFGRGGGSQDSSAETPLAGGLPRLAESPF
T3 sequence (P43220 24-463): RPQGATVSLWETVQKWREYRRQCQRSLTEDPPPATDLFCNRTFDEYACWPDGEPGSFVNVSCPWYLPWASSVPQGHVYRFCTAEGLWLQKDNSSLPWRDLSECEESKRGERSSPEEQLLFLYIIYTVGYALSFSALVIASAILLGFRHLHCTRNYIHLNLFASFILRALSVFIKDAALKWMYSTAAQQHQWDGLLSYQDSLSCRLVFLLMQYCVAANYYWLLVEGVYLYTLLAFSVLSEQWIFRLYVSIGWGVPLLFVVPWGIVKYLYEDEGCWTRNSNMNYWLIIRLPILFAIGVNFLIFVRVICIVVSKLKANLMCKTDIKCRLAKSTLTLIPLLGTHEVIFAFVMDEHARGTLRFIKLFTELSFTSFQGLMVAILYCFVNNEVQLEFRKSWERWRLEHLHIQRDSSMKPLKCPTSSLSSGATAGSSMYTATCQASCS

For `CC[C@H](C)[C@H](NC(=O)[C@H](CO)NC(=O)[C@H](Cc1ccc(O)cc1)NC(=O)[C@H](CC(=O)O)NC(=O)[C@H](CO)NC(=O)[C@@H](NC(=O)[C@](C)(Cc1ccccc1F)NC(=O)[C@@H](NC(=O)CNC(=O)[C@H](CCC(=O)O)NC(=O)C(C)(C)NC(=O)[C@@H](N)Cc1ccc(O)cc1)[C@@H](C)O)[C@@H](C)CC)C(=O)N[C@@H](CC(C)C)C(=O)N[C@@H](CC(C)C)C(=O)N[C@@H](CC(=O)O)C(=O)N[C@@H](CCCCN)C(=O)N[C@H](C(=O)N[C@@H](Cc1c[nH]cn1)C(=O)N[C@@H](CCC(N)=O)C(=O)NC(C)(C)C(=O)N[C@@H](CC(=O)O)C(=O)N[C@@H](Cc1ccccc1)C(=O)N[C@H](C(=O)N[C@@H](CCC(=O)O)C(=O)N[C@@H](Cc1ccncc1)C(=O)N[C@@H](CCCCNC(=O)COCCOCCNC(=O)COCCOCCNC(=O)CC[C@H](NC(=O)CCCCCCCCCCCCCCCCCCC(=O)O)C(=O)O)C(=O)N[C@@H](CC(C)C)C(=O)N[C@@H](CCC(=O)O)C(=O)N[C@@H](CCC(N)=O)C(=O)NCC(=O)N1CCC[C@H]1C(=O)N[C@@H](CO)C(=O)N[C@@H](CO)C(=O)NCC(=O)N[C@@H](C)C(=O)N1CCC[C@H]1C(=O)N1CCC[C@H]1C(=O)N1CCC[C@H]1C(=O)N[C@@H](CO)C(N)=O)C(C)C)[C@@H](C)CC` [Example 121] (H-Y[Aib]EGT[αMePhe(2-F)]ISDYSILLDKIHQ[Aib]DFVE[4Pal]K([AEEA-AEEA-γGlu-C20 diacid])LEQGPSSGAPPPS-NH2), the Ki is 94.9 nM in assay [1], 0.103 nM in assay [2] and greater than 912 nM in assay [3].
With `CC[C@H](C)[C@H](NC(=O)[C@H](CO)NC(=O)[C@H](Cc1ccc(O)cc1)NC(=O)[C@H](CC(=O)O)NC(=O)[C@H](CO)NC(=O)[C@@H](NC(=O)[C@](C)(Cc1ccccc1F)NC(=O)[C@@H](NC(=O)CNC(=O)[C@H](CCC(=O)O)NC(=O)C(C)(C)NC(=O)[C@@H](N)Cc1ccc(O)cc1)[C@@H](C)O)[C@@H](C)CC)C(=O)N[C@@H](C)C(=O)N[C@@H](CC(C)C)C(=O)N[C@@H](CC(=O)O)C(=O)N[C@@H](CCCCN)C(=O)N[C@@H](CCCCNC(=O)COCCOCCNC(=O)COCCOCCNC(=O)CC[C@H](NC(=O)CCCCCCCCCCCCCCCCCCC(=O)O)C(=O)O)C(=O)N[C@@H](Cc1c[nH]cn1)C(=O)N[C@@H](CCC(N)=O)C(=O)NC(C)(C)C(=O)N[C@@H](CCC(=O)O)C(=O)N[C@@H](Cc1ccccc1)C(=O)N[C@H](C(=O)N[C@@H](CC(N)=O)C(=O)N[C@@H](Cc1c[nH]c2ccccc12)C(=O)N[C@@H](CC(C)C)C(=O)N[C@@H](CC(C)C)C(=O)N[C@@H](C)C(=O)NCC(=O)NCC(=O)N1CCC[C@H]1C(=O)N[C@@H](CO)C(=O)N[C@@H](CO)C(=O)NCC(=O)N[C@@H](C)C(=O)N1CCC[C@H]1C(=O)N1CCC[C@H]1C(=O)N1CCC[C@H]1C(=O)N[C@@H](CO)C(N)=O)C(C)C` [Example 26] (H-Y[Aib]EGT[αMePhe(2-F)]ISDYSIALDKK([AEEA-AEEA-γGlu-C20 diacid])HQ[Aib]EFVNWLLAGGPSSGAPPPS-NH2), the Ki in assay [1] stood at 74.1 nM; in assay [2], 0.045 nM; in assay [3] it was 16.5 nM.
Turning to `CC[C@H](C)[C@H](NC(=O)[C@H](CO)NC(=O)[C@H](Cc1ccc(O)cc1)NC(=O)[C@H](CC(=O)O)NC(=O)[C@H](CO)NC(=O)[C@@H](NC(=O)[C@](C)(Cc1ccccc1)NC(=O)[C@@H](NC(=O)CNC(=O)[C@H](CCC(=O)O)NC(=O)C(C)(C)NC(=O)[C@@H](N)Cc1ccc(O)cc1)[C@@H](C)O)[C@@H](C)CC)C(=O)N[C@@H](C)C(=O)N[C@@H](CC(C)C)C(=O)N[C@@H](CC(=O)O)C(=O)N[C@@H](CCCCN)C(=O)N[C@@H](CCCCNC(=O)COCCOCCNC(=O)COCCOCCNC(=O)CC[C@H](NC(=O)CCCCCCCCCCCCCCCCCCC(=O)O)C(=O)O)C(=O)N[C@@H](Cc1c[nH]cn1)C(=O)N[C@@H](CCC(N)=O)C(=O)NC(C)(C)C(=O)N[C@@H](CCC(=O)O)C(=O)N[C@@H](Cc1ccccc1)C(=O)N[C@H](C(=O)N[C@@H](CC(N)=O)C(=O)N[C@@H](Cc1c[nH]c2ccccc12)C(=O)N[C@@H](CC(C)C)C(=O)N[C@@H](CC(C)C)C(=O)N[C@@H](C)C(=O)NCC(=O)NCC(=O)N1CCC[C@H]1C(=O)N[C@@H](CO)C(=O)N[C@@H](CO)C(=O)NCC(=O)N[C@@H](C)C(=O)N1CCC[C@H]1C(=O)N1CCC[C@H]1C(=O)N1CCC[C@H]1C(=O)N[C@@H](CO)C(N)=O)C(C)C` [Example 25] (H-Y[Aib]EGT[αMeF]ISDYSIALDKK([AEEA-AEEA-γGlu-C20 diacid])HQ[Aib]EFVNWLLAGGPSSGAPPPS-NH2), the inhibitory constant (Ki) worked out at 101 nM in assay [1], 0.0417 nM in assay [2] and 15.8 nM in assay [3].
For `CC[C@H](C)[C@H](NC(=O)[C@H](CCCN)NC(=O)[C@H](CC(=O)O)NC(=O)[C@H](CC(C)C)NC(=O)[C@](C)(CC(C)C)NC(=O)[C@@H](NC(=O)[C@H](CO)NC(=O)[C@H](Cc1ccc(O)cc1)NC(=O)[C@H](CC(=O)O)NC(=O)[C@H](CO)NC(=O)[C@@H](NC(=O)[C@H](Cc1ccccc1)NC(=O)[C@@H](NC(=O)CNC(=O)[C@H](CCC(=O)O)NC(=O)C(C)(C)NC(=O)[C@@H](N)Cc1ccc(O)cc1)[C@@H](C)O)[C@@H](C)CC)[C@@H](C)CC)C(=O)N[C@@H](CCCNC(=N)N)C(=O)N[C@@H](CCC(N)=O)C(=O)NC(C)(C)C(=O)N[C@@H](CC(=O)O)C(=O)N[C@@H](Cc1ccccc1)C(=O)N[C@H](C(=O)N[C@@H](CCC(=O)O)C(=O)N[C@@H](Cc1ccc(O)cc1)C(=O)N[C@@H](CCCCNC(=O)COCCOCCNC(=O)COCCOCCNC(=O)CC[C@H](NC(=O)CCCCCCCCCCCCCCCCCCC(=O)O)C(=O)O)C(=O)N[C@@H](CC(C)C)C(=O)N[C@@H](CCC(=O)O)C(=O)NCC(=O)NCC(=O)N1CCC[C@H]1C(=O)N[C@@H](CO)C(=O)N[C@@H](CO)C(=O)NCC(=O)N[C@@H](C)C(=O)N1CCC[C@H]1C(=O)N1CCC[C@H]1C(=O)N1CCC[C@H]1C(=O)N[C@@H](CO)C(N)=O)C(C)C` [Example 116] (H-Y[Aib]EGTFISDYSI[αMeL]LD[Orn]IRQ[Aib]DFVEYK([AEEA-AEEA-γGlu-C20 diacid])LEGGPSSGAPPPS-NH2), in that order: 178 nM, 0.166 nM and greater than 912 nM.
Take `CC[C@H](C)[C@H](NC(=O)[C@H](CCCN)NC(=O)[C@H](CC(=O)O)NC(=O)[C@H](CC(C)C)NC(=O)[C@](C)(CC(C)C)NC(=O)[C@@H](NC(=O)[C@H](CO)NC(=O)[C@H](Cc1ccc(O)cc1)NC(=O)[C@H](CC(=O)O)NC(=O)[C@H](CO)NC(=O)[C@@H](NC(=O)[C@H](Cc1ccccc1)NC(=O)[C@@H](NC(=O)CNC(=O)[C@H](CCC(=O)O)NC(=O)C(C)(C)NC(=O)[C@@H](N)Cc1ccc(O)cc1)[C@@H](C)O)[C@@H](C)CC)[C@@H](C)CC)C(=O)N[C@@H](Cc1c[nH]cn1)C(=O)N[C@@H](CCC(N)=O)C(=O)NC(C)(C)C(=O)N[C@@H](CC(=O)O)C(=O)N[C@@H](Cc1ccccc1)C(=O)N[C@H](C(=O)N[C@@H](CCC(=O)O)C(=O)N[C@@H](Cc1ccc(O)cc1)C(=O)N[C@@H](CCCCNC(=O)COCCOCCNC(=O)COCCOCCNC(=O)CC[C@H](NC(=O)CCCCCCCCCCCCCCCCC(=O)O)C(=O)O)C(=O)N[C@@H](CC(C)C)C(=O)N[C@@H](CCC(=O)O)C(=O)NCC(=O)NCC(=O)N1CCC[C@H]1C(=O)N[C@@H](CO)C(=O)N[C@@H](CO)C(=O)NCC(=O)N[C@@H](C)C(=O)N1CCC[C@H]1C(=O)N1CCC[C@H]1C(=O)N1CCC[C@H]1C(=O)N[C@@H](CO)C(N)=O)C(C)C` [Example 103] (H-Y[Aib]EGTFISDYSI[αMeL]LD[Orn]IHQ[Aib]DFVEYK([AEEA-AEEA-γGlu-C18 diacid])LEGGPSSGAPPPS-NH2): the inhibition constant (Ki) in assay [1] is greater than 960 nM; in assay [2] it was 0.0405 nM; in assay [3], greater than 913 nM.
